From publication PMC9823088, “The oral selective estrogen receptor degrader GDC-0810 (ARN-810) in postmenopausal women with hormone receptor-positive HER2-negative (HR + /HER2 −) advanced/metastatic breast cancer” (Breast Cancer Research and Treatment, 2022)

Columns and labels:
[1] = Study drug exposure (treatment duration); assay type: in vivo, human; conditions: phase Ia
Source text: Patients in all three study phases continued treatment until unacceptable toxicity, disease progression, or consent withdrawal. See Supplementary Methods for other study treatment details.

CYP2B6 = system: CYP2B6; design: method as in printed; conditions: stated as reason for dose adjustments; ref not given; cited from earlier work

CC/C(=C(/c1ccc(/C=C/C(=O)O)cc1)c1ccc2[nH]ncc2c1)c1ccc(F)cc1Cl [GDC-0810]
patients remaining on study treatment for 2 years [1]: Two | effects on CYP2B6 (CYP2B6): inhibitory effects
